What is called EC50 is the concentration needed to bring the measured effect to its halfway point.

For one data set, the target named is T1, hAMY3 receptor (Homo sapiens, UniProt O60896+P30988).
T1 sequence (P30988 25-474): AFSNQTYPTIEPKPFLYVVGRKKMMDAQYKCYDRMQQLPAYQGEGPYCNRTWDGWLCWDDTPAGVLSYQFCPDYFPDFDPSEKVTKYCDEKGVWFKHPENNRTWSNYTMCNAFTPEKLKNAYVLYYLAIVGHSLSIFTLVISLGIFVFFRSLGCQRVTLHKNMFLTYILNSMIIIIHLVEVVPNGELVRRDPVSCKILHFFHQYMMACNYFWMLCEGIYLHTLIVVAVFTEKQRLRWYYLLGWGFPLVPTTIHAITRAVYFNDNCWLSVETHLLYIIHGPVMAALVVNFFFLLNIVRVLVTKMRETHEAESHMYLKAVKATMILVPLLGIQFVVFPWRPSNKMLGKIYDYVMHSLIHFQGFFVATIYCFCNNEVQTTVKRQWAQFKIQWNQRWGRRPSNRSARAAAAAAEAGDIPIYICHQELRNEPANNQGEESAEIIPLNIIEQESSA
T1 sequence (O60896 24-148 partner): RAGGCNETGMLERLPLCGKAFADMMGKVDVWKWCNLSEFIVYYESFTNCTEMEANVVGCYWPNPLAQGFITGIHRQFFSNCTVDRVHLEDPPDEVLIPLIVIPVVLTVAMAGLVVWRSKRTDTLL
Put plainly: cAMP assay for in vitro receptor activation, hAMY3-R. It counts as cell-based. Particulars: cAMP assay, hAMY3 receptor; read-out: hAMY3R EC50. A digest of the protocol:
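Thawed cells from a sub-cloned monoclonal hAMY3-overexpressing line are plated in DPBS containing 0.05% casein and 0.5 mM IBMX. Test compounds are added immediately at graded doses for 30 min at room temperature. Reagents for cAMP detection are then added, and TR-FRET is recorded after one hour.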
Background: Cyclic AMP is a second messenger, typically raised through Gs and lowered through Gi signalling.

Another data set addresses hAM1 receptor (Homo sapiens, UniProt O60895+Q16602). Put plainly: cAMP assay for in vitro receptor activation, hAM1-R. It is filed as cell-based. The note with it: cAMP assay, hAM1 receptor; read-out: hAM1R EC50. In a few lines:
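cAMP accumulation was measured in a monoclonal cell line stably overexpressing the hAM1 receptor. Frozen aliquots were thawed and plated at 8000 cells/well in DPBS containing 0.05% casein and 0.5 mM IBMX.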

Data set [1] in a line: Physical stability of peptide analogues (Thioflavin T fibrillation). It is filed as physicochemical. Particulars: maximum ThT signal normalized between hAMY maximum and buffer background; 40° C., shaking, four days; pH 7 per table title. In a few lines: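 1 h in 50 mM NaOAc pH 4 / 50 mM NaPi pH 7; + ThT 4 μM final; 40 °C, 700 rpm linear shake 5 min pre-read; ex 450, em 480 nm q10 min × 4 d; LOESS smoothing; max signal normalised to hAMY max vs buffer blank.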

Bridge positions count the residues as written; N and C are the ends. Square brackets hold non-standard residues; d marks the D form. Peptide text beside a SMILES is read from it. Hyp = O=C(O)[C@@H]1C[C@@H](O)CN1 A value given as a limit tells only on which side of the number the result lay.

hAM1 receptor, sequence (Q16602 23-461): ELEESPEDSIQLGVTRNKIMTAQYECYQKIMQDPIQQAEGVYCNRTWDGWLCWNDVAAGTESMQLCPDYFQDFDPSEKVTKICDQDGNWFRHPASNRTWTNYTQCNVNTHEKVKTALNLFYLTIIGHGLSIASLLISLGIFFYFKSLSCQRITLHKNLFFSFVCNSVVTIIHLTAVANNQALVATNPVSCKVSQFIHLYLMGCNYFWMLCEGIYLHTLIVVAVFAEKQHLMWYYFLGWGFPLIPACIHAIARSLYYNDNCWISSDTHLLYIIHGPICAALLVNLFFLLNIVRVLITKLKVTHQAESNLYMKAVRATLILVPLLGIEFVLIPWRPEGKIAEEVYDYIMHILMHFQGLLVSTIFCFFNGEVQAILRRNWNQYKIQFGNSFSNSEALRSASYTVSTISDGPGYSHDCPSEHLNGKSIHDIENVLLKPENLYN
hAM1 receptor, sequence (O60895 43-175 partner): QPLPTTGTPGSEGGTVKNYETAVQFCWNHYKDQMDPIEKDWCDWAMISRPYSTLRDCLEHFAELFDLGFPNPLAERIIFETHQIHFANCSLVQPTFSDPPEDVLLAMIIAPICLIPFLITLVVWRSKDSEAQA

As to `CC[C@H](C)[C@H](NC(=O)[C@H](CCC(N)=O)NC(=O)[C@H](Cc1c[nH]cn1)NC(=O)[C@H](C)NC(=O)[C@H](CC(C)C)NC(=O)[C@H](CCCNC(=N)N)NC(=O)[C@H](CCC(N)=O)NC(=O)[C@@H](NC(=O)[C@@H](NC(=O)[C@@H]1CSSC[C@H](NC(=O)CN)C(=O)N[C@@H](CCCNC(=N)N)C(=O)N[C@@H](Cc2ccccc2)C(=O)NCC(=O)N[C@@H]([C@@H](C)O)C(=O)N1)[C@@H](C)O)C(C)C)C(=O)N[C@@H](Cc1ccc(O)cc1)C(=O)N[C@@H](CCC(N)=O)C(=O)N[C@@H](Cc1ccccc1)C(=O)N[C@H](C(=O)N[C@@H](CC(=O)O)C(=O)N[C@@H](CCCCN)C(=O)N[C@@H](CC(=O)O)C(=O)N[C@@H](CCCCN)C(=O)N[C@@H](CC(=O)O)C(=O)N[C@@H](CC(N)=O)C(=O)N[C@H](C(=O)N[C@@H](C)C(=O)N1CCC[C@H]1C(=O)N[C@@H](CCCNC(=N)N)C(=O)N[C@@H](CO)C(=O)N[C@@H](CC(N)=O)C(=O)N[C@H](C(=O)NCC(=O)N1CCC[C@H]1C(=O)N[C@@H](CCC(N)=O)C(=O)NCC(=O)N[C@@H](Cc1ccc(O)cc1)C(N)=O)C(C)C)C(C)C)[C@@H](C)O` [compound 374] (H-GCRFGTCTVQRLAHQIYQFTDKDKDNVAPRSNVGPQGY-NH2; disulfide 2-7; N-terminus assumed), the EC50 on hAMY3 receptor was 0.021 nM; on hAM1 receptor, 12 nM. In addition, the “Max ThT signal (%)” value in data set [1] was 4.800%.

`CC[C@H](C)[C@H](NC(=O)[C@H](CCC(N)=O)NC(=O)[C@H](Cc1c[nH]cn1)NC(=O)[C@H](C)NC(=O)[C@H](CC(C)C)NC(=O)[C@H](Cc1c[nH]c2ccccc12)NC(=O)[C@H](CCC(N)=O)NC(=O)[C@@H](NC(=O)[C@@H](NC(=O)[C@@H]1CSSC[C@H](NC(=O)CN)C(=O)N[C@@H](CCCNC(=N)N)C(=O)N[C@@H]([C@@H](C)O)C(=O)NCC(=O)N[C@@H]([C@@H](C)O)C(=O)N1)[C@@H](C)O)C(C)C)C(=O)N[C@@H](Cc1ccc(O)cc1)C(=O)N[C@@H](CCC(N)=O)C(=O)N[C@@H](Cc1ccccc1)C(=O)N[C@H](C(=O)N[C@@H](CC(=O)O)C(=O)N[C@@H](CCCCN)C(=O)N[C@@H](CC(=O)O)C(=O)N[C@@H](CCCCN)C(=O)N[C@@H](CC(=O)O)C(=O)N[C@@H](CC(N)=O)C(=O)N[C@H](C(=O)N[C@@H](C)C(=O)N1CCC[C@H]1C(=O)N[C@@H](CCCNC(=N)N)C(=O)N[C@@H](CO)C(=O)N[C@@H](CC(N)=O)C(=O)N[C@H](C(=O)NCC(=O)N1CCC[C@H]1C(=O)N[C@@H](CCC(N)=O)C(=O)NCC(=O)N[C@@H](Cc1ccc(O)cc1)C(N)=O)C(C)C)C(C)C)[C@@H](C)O` [compound 346] (H-GCRTGTCTVQWLAHQIYQFTDKDKDNVAPRSNVGPQGY-NH2; disulfide 2-7; N-terminus assumed): the EC50 is 0.085 nM on hAMY3 receptor and greater than 5000 nM at hAM1 receptor. The “Max ThT signal (%)” value in data set [1] came out at 1.200%.

As to `CC[C@H](C)[C@H](NC(=O)[C@H](CCC(N)=O)NC(=O)[C@H](Cc1c[nH]cn1)NC(=O)[C@H](C)NC(=O)[C@H](CC(C)C)NC(=O)[C@H](CCCNC(=N)N)NC(=O)[C@H](CCC(N)=O)NC(=O)[C@@H](NC(=O)[C@@H](NC(=O)[C@@H]1CSSC[C@H](NC(=O)[C@@H](N)CCCCN)C(=O)N[C@@H](CC(N)=O)C(=O)N[C@@H]([C@@H](C)O)C(=O)N[C@@H](C)C(=O)N[C@@H]([C@@H](C)O)C(=O)N1)[C@@H](C)O)C(C)C)C(=O)N[C@@H](Cc1ccc(O)cc1)C(=O)N[C@@H](C)C(=O)N[C@@H](Cc1ccccc1)C(=O)N[C@H](C(=O)N[C@@H](CC(=O)O)C(=O)N[C@@H](CCCCN)C(=O)N[C@@H](CC(=O)O)C(=O)N[C@@H](CCCCN)C(=O)N[C@@H](CC(=O)O)C(=O)N[C@@H](CC(N)=O)C(=O)N[C@H](C(=O)N[C@@H](C)C(=O)N1CCC[C@H]1C(=O)N1CCC[C@H]1C(=O)N[C@H](C(=O)N[C@@H](CC(N)=O)C(=O)N[C@H](C(=O)NCC(=O)N[C@@H](CO)C(=O)N[C@@H](CC(N)=O)C(=O)NCC(=O)N1C[C@H](O)C[C@H]1C(N)=O)C(C)C)[C@@H](C)O)C(C)C)[C@@H](C)O` [compound 42] (H-KCNTATCTVQRLAHQIYAFTDKDKDNVAPPTNVGSNG[Hyp]-NH2; disulfide 2-7; N-terminus assumed), the EC50 at hAMY3 receptor is 0.01 nM; on hAM1 receptor it was greater than 5000 nM. Also, the “Max ThT signal (%)” value in data set [1] is listed as 6.300%.

The values are drawn from US12139520B2 (priority 2020, dated 2024).
